Test results as given in patent publication US10273279B2, “Protease activated receptor-1 (PAR1) derived cytoprotective polypeptides and related methods” (THE SCRIPPS RESEARCH INSTITUTE, priority 2011, dated 2019).
Where no end group is shown, it is not given here.

Legend:
[1] = tested on: glycogen synthase kinase 3β (GSK3β) phosphorylation at Ser9; assay: GSK3β Ser9 phosphorylation in endothelial cells; type: cell-based, human
Description: To further confirm activation of Akt by the TR47-66 peptide, Akt-mediated inactivation of glycogen synthase kinase 3β (GSK3β) via phosphorylation at Ser9 was determined. GSK3β is a well-known downstream substrate for Akt.

[2] = tested on: Akt phosphorylation at Ser473 in EA.hy.926 human endothelial cells; assay: Akt Ser473 phosphorylation in EA.hy.926 endothelial cells (in-cell Western); type: cell-based
Excerpt: (§1) Activated Protein C (APC) cleaves a synthetic PAR1 tail peptide at Arg^41 and Arg^46; furthermore, APC cleaves SEAP-PAR1 mutants with the mutations R41A or R41Q but not SEAP-PAR1 with both R41Q/R46Q mutations. […] It was thus hypothesized that a new PAR1 N-terminus beginning at residue Asn-47 promotes PAR1 signaling and APC cytoprotective activities. Since phosphorylation of signaling network components is useful for monitoring activation of signaling pathways, the effects of synthetic PAR1 peptides on Akt and ERK1/2 phosphorylation in EA.hy.926 human endothelial cells were studied. Cells were treated for 0, 5 or 30 min with peptides prior to cell fixation, permeabilization of cells and subsequent immunoblotting analysis (“in-cell Western blotting”). Relative phosphorylation of Akt at Ser^473 (pSer^473-Akt) or of ERK1/2 at Thr202/204 (pERK1/2) in endothelial cells was quantified using the LI-COR Odyssey infrared (IR) fluorescence imaging system which permits “in cell” Western blots. The Odyssey permits simultaneous quantification of different antibodies that yield either red or green signals.
(§2) Methods: EA.hy.926 cells (ATCC: CRL-2922) were grown in black clear bottom 96 well plates (Nunc) in DMEM (Invitrogen #12430) supplemented with glutamax (Invitrogen #35050) and 10% FBS (Hyclone #35-011-CV) in a 37° C. cell incubator with a humidified atmosphere and 5% CO2 in air until confluency. Cells were treated for 0, 5 or 30 min with PAR1 peptides TFLL (50 μM), NPND (250 μM) or scr-NPND (250 μM) or with vehicle in serum free media. Subsequently cells were fixed with methanol free 4% para-formaldehyde (Pierce), washed with phosphate buffered saline (PBS; Invitrogen) containing 1% triton X-100 and blocked with Odyssey blocking buffer (Licor). Cells were incubated with rabbit anti-pT202/Y204 ERK1/2 (1/1000; Cell signaling D13.14.4E) or rabbit anti-pSer^473 (1/100; cell signaling D9E) with Odyssey blocking buffer. After washing with PBS/0.1% Tween (1/800), IRDye 800CW-labelled secondary goat anti-rabbit antibodies (Licor) were added to the cells in Odyssey blocking buffer and 1/10,000 Draq5 (Biostatus) for cell normalization. After final washing with PBS/0.1% Tween IR, the fluorescence of bound antibodies was determined using the Odyssey (Licor). Background fluorescence was determined by omitting the primary antibody and subtracting values for controls from all other observed values.

[3] = tested on: ERK1/2 phosphorylation at Thr202/204 in EA.hy.926 human endothelial cells; assay: ERK1/2 phosphorylation in EA.hy.926 endothelial cells (in-cell Western); type: cell-based
Excerpt: as §1, §2

[4] = tested on: EA.hy.926 endothelial cells; assay: Staurosporine-induced endothelial cell apoptosis (Apopercentage dye); type: cell-based, human; conditions: 4 hrs pretreatment; 50 μM NPND, 50 μM scr-NPND or 10 μM TFLL; staurosporine 10 μM
Description: Activated Protein C (APC) conveys anti-apoptotic activity to EA.hy.926 cells that requires functional PAR1 receptor and APC binding to the endothelial protein C receptor (EPCR). See, e.g., Mosnier at al., Biochem J. 2003; 373:65-70; and Mosnier at al., Blood. 2007; 109:3161-3172.
Methods: EA.hy.926 cells (ATCC: CRL-2922) were grown in 24 well plates in DMEM (Invitrogen #12430) supplemented with glutamax (Invitrogen #35050) and 10% FBS (Hyclone #35-011-CV) in a 37° C. cell incubator with a humidified atmosphere and 5% CO2 in air until confluency. Cells were treated for 4 hrs with vehicle control, 50 μM NPND, 50 μM scr-NPND or 10 μM TFLL after which staurosporine (10 μM) and the Apopercentage dye (Biocolor) were added according the manufacturer's instructions. After 1 hr cells were washed with 2×1 ml PBS and 110 μl of the dye release agent was added to the cells. Subsequently 100 μl aliquots were transferred to a black 96 well plate and fluorescence was measured (530 nm excitation/580 nm emission). Apoptosis was expressed as a percentage of cells treated with 10 mM H2O2 for which apoptosis was set at 100%.

SEAP-PAR1 = SEAP-PAR1 cleavage reporter on transfected HEK-293 cells (SEAP release); type: cell-based, human; conditions: independent of EPCR
Excerpt: To facilitate analysis of APC-mediated PAR-1 activation, we created a full-length PAR-1 construct linked at the N-terminus to an alkaline phosphatase reporter group (SEAP). Selection of stable cell lines expressing both endothelial protein C receptor (EPCR) (wt or E86A) and SEAP-PAR1 allowed for a reliable and reproducible analysis of EPCR-dependent PAR-1 activation by APC. Mass-spec analysis of cleavage fragments generated by APC of a synthetic PAR-1 N-terminal tail peptide (TR33-62) identified both Arg^41 and Arg^46 as potential cleavage sites for APC proteolysis, as noted above. […] R41Q-SEAP-PAR1 was cleaved by APC in the presence of EPCR. This surprising result was also obtained for R41A-SEAP PAR1.
2009; 113:5970-5978. SEAP-PAR1, either in the presence or absence of wt-EPCR, were transfected into HEK-293 cells to obtain stable cells expressing SEAP-PAR1 or wt-EPCR/SEAP-PAR1. Mutations in SEAP-PAR1 were introduced using the Quickchange method (Agilent). Cells were grown in 96-wells plates to confluency in Dulbeco's modified Eagle media (DMEM): Ham's F-12 (Invitrogen) supplemented with penicillin-streptomycin-glutamine (PSG) (Gibco) and 10% fetal bovine serum (Omega) in a humidified atmosphere at 37° C. and 5% CO2 Cells were washed with Hank's balanced salt solution (HBSS; Invitrogen) supplemented with 1.3 mM CaCl2, 0.6 mM MgCl2 and 0.1% endotoxin free BSA (Calbiochem) and incubated with APC. After 60 min, SEAP release was determined using 1-step PNPP (Pierce). Values were corrected for background activity derived from the same cells incubated in the absence of APC and expressed as a percentage of total SEAP available on the cell membrane.

[5] = 0, 5 or 30 min, TFLL 50 μM, NPND 250 μM, scr-NPND 250 μM

Molecule: CC(C)c1ccc(Cn2ccc3c4c(N)nc(NC5CC5)nc4ccc32)cc1 [SCH79797]
- effect on TR47-66-induced Ser9-GSK3β phosphorylation ([1]; PAR1 antagonist added to TR47-66): inhibited

Molecule: TFLLRNPNDK (not fully specified) [reference compound]
- pSer473-Akt (Akt phosphorylation) [2, 5]: essentially no effect
- Ser473-Akt phosphorylation (activation of Akt) ([2]; Example 7, under the employed experimental conditions): neither thrombin nor TRAP induced
- ERK1/2 phosphorylation (pERK1/2) [3, 5]: quickly but transiently stimulated
- activation of ERK1/2 ([3]; Example 7): did so
- inhibition of staurosporine-induced endothelial cell apoptosis [4]: did not convey detectable anti-apoptotic effects
- phosphorylation of GSK3β at Ser9 ([1]; Example 7): did not result in Ser9-GSK3β phosphorylation

Molecule: elastase [reference compound]
- cleavage of all PAR1 constructs on cells (SEAP-PAR1): cleaved all PAR1 constructs on cells with similar efficacy
